Experimental data published in US9580707B2, “Peptide antimicrobials” (Wayne State University, priority 2010, dated 2017).

test system: E. coli DH5α; assay: Induced growth curves of E. coli expressing peptide-PhoA fusions in the periplasm (periplasmic in vivo display); assay type: cell-based; conditions: peptide expressed as PhoA fusion in the periplasm, arabinose induction, OD600
Procedure: Numerous periplasmic screens have been performed for the identification of bacteriolytic peptides, encompassing more than 90 million clones. Selected clones have been sequenced and confirmed by induced growth curves, confirming that the disclosed bacteriolytic screen enriches plasmid preparations for peptides that elicit cell lysis. For example, an isolated clone is grown in fresh LB medium to early log phase. Arabinose is added to induced peptide-PhoA fusion expression, and the peptide's effect on growth is observed by measuring the cell density of the culture. Many clones of differing growth phenotypes were analyzed. Bacteriolytic peptides have predominated the extracted clones, which is to be expected given that the bacteriolytic screen was used. Peptides were recovered that had either a bacteriostatic or bactericidal effect and others that have a weakly inhibitory effect as they reduce the rate of E. coli's growth […] and may find use as precursors to actual peptide hits.
Phenotype definitions: Bacteriolytic: OD600 of culture decreases in value, correlating with a reduction in the concentration of cells. Bactriostatic/bactericidal: OD600 of culture flatlines, correlating with a complete stop in the growth of the cells and constant cell density. Weakly inhibitory OD600<0.7: Replication is slowed but not stopped. Final OD600 as culture enters stationary phase is less than 0.7. Weakly inhibitory OD600>0.7: Similar to the above, only final OD600 exceeds 0.7. Peptides have only a minor effect on growth. Non-inhibitory: No growth effect was observed versus the expression of PhoA with no peptide at its N-terminus.
After replica plating, clones were grown in LB+30 μg/ml kanamycin. When OD600˜0.15, arabinose was added to a final concentration of 0.2%. The OD600 of the culture was then measured every 30 minutes to see the effect of peptide-PhoA fusion expression on the cell. […]

Row | Substance | antimicrobial activity / growth phenotype after induction
1 | EOD037: inhibitory peptide from the early onset degenerate peptide library (IRWLARRWRRTF; Antimicrobial peptide EOD037) | inhibitory
2 | EOD037 Pro+: EOD037 in which an alanine was replaced with a proline (IRWLPRRWRRTF; Antimicrobial peptide EOD037Pro+) | loss of antimicrobial activity
3 | EOD084: non-inhibitory, proline-containing peptide from the early onset degenerate peptide library (FMRLPRWWRRMQ; Antimicrobial peptide EOD084) | non-inhibitory
